System: beating H9 embryonic stem cell derived cardiomyocytes
Assay: Drug dosing of beating cardiomyocyte hydrogel array, observed by camera
Format: cell-based
Settings: 1×16 GelMa array after 3 days incubation, visual camera observation
Experimental: In one example, a Labcyte Echo Model 555 nano liter sonic dispensing system was used to deliver 2 heart drugs, Satolol an Antiarrhythmic drug and Isoproteronol a […], to the fabricated array. The drugs were diluted to 2.25 uM in cell media nutrient solution to prevent dehydration. The Echo 555 liquid handler revolutionizes liquid handling with acoustic energy. Sound waves eject precisely sized droplets from a source onto a microplate, slide or other surface suspended above the source. […] Fluids are transferred in nanoliter increments. Larger volumes are transferred at the rate of hundreds of droplets per second. By using this non contact method it minimizes any contact that could damage or kill the cells as found in other dispensing methods. It also allows for the use of very small quantities thus allowing users to screen molecules that are scarce or difficult to manufacture thus reducing cost. In addition, the X and Y position of the dispensing head can be precisely located over the N×N array location of interest thereby allowing different locations to have a drug of interest administered.
beating H9 embryonic stem cell derived cardiomyocytes were used on day 25 of differentiation. After disassociation a vial with 1 mL of suspension was produced. […] Within those it was determined that 8.38×10^5 live cells were present with tryptan blue. […]

CC(C)NCC(O)c1ccc(O)c(O)c1 (centres unmarked) [Isoproteronol]
effect on refectory period (pause in beating) of irregularly beating heart cells: removed the refectory period (pause in beating) of some irregularly beating heart cells

CC(C)NCC(O)c1ccc(NS(C)(=O)=O)cc1 (centres unmarked) [Satolol]
increase in the heart cells beating (dosing with 10 nM): 30-40%
